Laboratory results taken from patent US20200239530A1, “COMPOUNDS AND METHODS OF MODULATING PROTEIN DEGRADATION” (Vividion Therapeutics, Inc., priority 2017, published 2020).

Assays:
Experiment in all cases: Cysteine liganding, probe competition
Format in all cases: binding
[1] = molecular target: T1, CDK17 Cyclin-dependent kinase 17 (Homo sapiens, UniProt Q00537); conditions: for Liganded: CDK17 Res# 233, uniprot Q00537
T1 construct: 200 μL of lysate containing 5 mg/ml proteome was treated with 2 μL of 100× compound stock; endogenous in cells
Outline: (§1)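 Lysates from probe-sonicated cells in PBS (5 mg/ml proteome) were exposed to compound for 1 hr at 25° C, then labelled with desthiobiotin iodoacetamide probe (10 mM stock) for 1 hr at 25° C. Probe-tagged peptides were streptavidin-enriched after trypsin digestion.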

[2] = molecular target: T2, FAM120A Constitutive coactivator of PPAR-gamma-like protei (Homo sapiens, UniProt Q9NZB2)
T2 construct: 200 μL of lysate containing 5 mg/ml proteome was treated with 2 μL of 100× compound stock; endogenous in cells
T2 sequence (Q9NZB2 1-1118): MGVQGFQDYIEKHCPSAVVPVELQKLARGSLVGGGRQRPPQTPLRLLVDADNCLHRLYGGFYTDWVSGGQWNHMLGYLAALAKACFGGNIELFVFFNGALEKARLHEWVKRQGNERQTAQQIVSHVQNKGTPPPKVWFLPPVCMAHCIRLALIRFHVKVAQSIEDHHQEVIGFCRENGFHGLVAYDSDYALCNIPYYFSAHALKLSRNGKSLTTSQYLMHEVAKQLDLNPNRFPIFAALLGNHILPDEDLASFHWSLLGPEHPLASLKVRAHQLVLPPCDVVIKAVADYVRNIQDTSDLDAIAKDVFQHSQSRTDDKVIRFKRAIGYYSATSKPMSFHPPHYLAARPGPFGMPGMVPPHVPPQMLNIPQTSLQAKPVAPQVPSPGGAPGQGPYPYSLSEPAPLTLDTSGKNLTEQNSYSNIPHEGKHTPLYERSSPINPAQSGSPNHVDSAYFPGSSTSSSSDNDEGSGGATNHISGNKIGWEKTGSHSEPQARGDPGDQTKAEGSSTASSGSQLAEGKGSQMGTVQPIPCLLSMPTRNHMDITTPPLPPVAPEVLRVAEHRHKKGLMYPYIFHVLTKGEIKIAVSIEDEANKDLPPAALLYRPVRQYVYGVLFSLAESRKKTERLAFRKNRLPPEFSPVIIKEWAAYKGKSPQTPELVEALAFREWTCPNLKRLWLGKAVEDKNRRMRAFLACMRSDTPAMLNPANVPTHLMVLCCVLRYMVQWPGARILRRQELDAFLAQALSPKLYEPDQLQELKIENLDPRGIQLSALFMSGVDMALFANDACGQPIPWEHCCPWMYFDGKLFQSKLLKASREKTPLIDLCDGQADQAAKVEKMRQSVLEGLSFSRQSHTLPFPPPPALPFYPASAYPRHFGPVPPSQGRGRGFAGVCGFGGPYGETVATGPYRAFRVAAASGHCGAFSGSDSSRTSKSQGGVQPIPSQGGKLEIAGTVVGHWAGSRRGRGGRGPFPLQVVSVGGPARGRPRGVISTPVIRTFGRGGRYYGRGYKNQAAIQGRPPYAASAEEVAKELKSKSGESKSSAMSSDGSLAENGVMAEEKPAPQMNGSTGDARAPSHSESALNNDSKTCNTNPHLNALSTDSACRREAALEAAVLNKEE
Outline: as §1

[3] = molecular target: T3, HADHB Trifunctional enzyme subunit beta, mitochondrial (Homo sapiens, UniProt P55084)
T3 construct: Cells were resuspended in cold PBS on ice and sonicated with a probe sonicator to achieve lysis; endogenous in cells
Outline: as §1

T3 sequence (P55084 34-474): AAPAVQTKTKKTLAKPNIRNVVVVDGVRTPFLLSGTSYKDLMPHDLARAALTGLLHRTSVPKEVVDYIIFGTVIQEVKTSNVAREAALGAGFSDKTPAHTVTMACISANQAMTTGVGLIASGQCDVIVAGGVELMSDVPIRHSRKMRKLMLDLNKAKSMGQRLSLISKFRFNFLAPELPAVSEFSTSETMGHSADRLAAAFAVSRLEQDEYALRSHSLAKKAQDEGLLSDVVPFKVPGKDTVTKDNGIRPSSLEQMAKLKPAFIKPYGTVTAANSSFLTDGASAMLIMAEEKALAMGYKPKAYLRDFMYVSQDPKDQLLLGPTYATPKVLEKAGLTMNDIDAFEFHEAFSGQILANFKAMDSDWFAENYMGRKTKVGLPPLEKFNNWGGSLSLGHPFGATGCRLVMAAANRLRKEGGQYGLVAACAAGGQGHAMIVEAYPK
T3 sequence (P40939 37-763 partner): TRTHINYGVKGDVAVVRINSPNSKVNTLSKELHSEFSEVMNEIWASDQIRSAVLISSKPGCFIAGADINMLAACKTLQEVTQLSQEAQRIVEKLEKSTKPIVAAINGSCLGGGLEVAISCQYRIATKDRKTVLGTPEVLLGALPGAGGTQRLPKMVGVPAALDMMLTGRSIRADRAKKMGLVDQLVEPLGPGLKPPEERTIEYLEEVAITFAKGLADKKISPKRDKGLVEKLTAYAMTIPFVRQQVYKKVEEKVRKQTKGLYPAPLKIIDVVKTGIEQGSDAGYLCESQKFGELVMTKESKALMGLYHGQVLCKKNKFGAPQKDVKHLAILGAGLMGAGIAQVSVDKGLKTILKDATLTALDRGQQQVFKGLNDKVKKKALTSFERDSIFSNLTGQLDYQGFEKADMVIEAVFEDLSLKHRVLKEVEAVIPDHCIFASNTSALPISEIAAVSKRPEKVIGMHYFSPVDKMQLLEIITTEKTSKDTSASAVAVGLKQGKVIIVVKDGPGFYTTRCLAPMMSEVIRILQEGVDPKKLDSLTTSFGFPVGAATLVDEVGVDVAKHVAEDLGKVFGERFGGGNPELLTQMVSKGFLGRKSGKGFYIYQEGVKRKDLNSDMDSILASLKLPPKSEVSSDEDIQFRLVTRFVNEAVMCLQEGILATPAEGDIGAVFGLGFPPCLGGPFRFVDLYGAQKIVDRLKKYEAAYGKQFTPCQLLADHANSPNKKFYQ
T1 sequence (Q00537 whole entry): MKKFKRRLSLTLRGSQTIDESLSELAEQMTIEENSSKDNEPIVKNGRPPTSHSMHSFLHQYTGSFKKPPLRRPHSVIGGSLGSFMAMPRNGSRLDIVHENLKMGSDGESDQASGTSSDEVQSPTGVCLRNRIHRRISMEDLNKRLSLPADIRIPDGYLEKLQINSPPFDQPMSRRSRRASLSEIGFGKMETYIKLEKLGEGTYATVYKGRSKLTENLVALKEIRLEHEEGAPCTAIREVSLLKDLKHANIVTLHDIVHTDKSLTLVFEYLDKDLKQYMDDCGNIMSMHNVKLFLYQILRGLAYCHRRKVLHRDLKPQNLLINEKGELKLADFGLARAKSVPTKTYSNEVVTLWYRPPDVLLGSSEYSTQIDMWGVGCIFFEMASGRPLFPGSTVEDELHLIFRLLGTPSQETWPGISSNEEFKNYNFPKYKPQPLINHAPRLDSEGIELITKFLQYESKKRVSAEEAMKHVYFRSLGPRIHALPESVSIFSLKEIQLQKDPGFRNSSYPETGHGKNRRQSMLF

COc1ccc2c(c1)CCCN2C(=O)CCl [KB02]
Liganded [1]: YES | Liganded ([2]; FAM120A Res# 919, uniprot Q9NZB2): YES | Liganded ([3]; HADHB Res# 458, uniprot P55084): YES

O=C(CCl)Nc1cc(C(F)(F)F)cc(C(F)(F)F)c1 [KBO3]
Liganded [1]: YES | 100 Max ([1]; uniprot Q00537): 50.67 | 100 ave ([1]; uniprot Q00537): 28.2075 | 500 ave ([1]; uniprot Q00537): 79.225 | 500 Max ([1]; uniprot Q00537, in % (unit assumed)): 80.44 | 100 ave ([2]; uniprot Q9NZB2): −8.925 | 500 Max ([2]; uniprot Q9NZB2): 55.62 | 500 ave ([2]; uniprot Q9NZB2): 55.62 | 100 Max ([2]; uniprot Q9NZB2, in % (unit assumed)): 13.09 | 100 Max ([3]; uniprot P55084): 26.24 | 100 ave ([3]; uniprot P55084): 15.245 | 500 Max ([3]; uniprot P55084): 64.33 | 500 ave ([3]; uniprot P55084): 60.9
